Experimental data reported in US4517359A, “11-Methyl-11-aza-4-0-cladinosyl-6-0-desosaminyl-15-ethyl-7,1 3,14-trihydroxy-3,5,7,9,12,14-hexamethyl-oxacyclopentadecane-2-one and derivatives thereof” (Sour Pliva farmaceutska, kemijska prehrambena i kozmeticka …, priority 1981, dated 1985).
Converted amounts (≈) assume the structure as drawn. Like-named read-outs stand apart in the source and are kept apart here.

Legend:
[1] = system: bacteria; conditions: versus erythromycin A (U.S. Pat. No. 3,417,077; Rocz. Chem. 46, 2212-2217, 1972); cited from earlier work
[2] = system: Streptococcus faecalis ATCC 8043; assay: Minimum Inhibitory Concentration (MIC), in vitro; format: cell-based; conditions: Enterococcus faecalis
[3] = system: Staphylococcus epidermidis ATCC 12228; assay: Minimum Inhibitory Concentration (MIC), in vitro; format: cell-based
[4] = system: Staphylococcus aureus ATCC 6538-P; assay: Minimum Inhibitory Concentration (MIC), in vitro; format: cell-based
[5] = system: Micrococcus flavus ATCC 10240; assay: Minimum Inhibitory Concentration (MIC), in vitro; format: cell-based
[6] = system: Sarcina lutea ATCC 9341; assay: Minimum Inhibitory Concentration (MIC), in vitro; format: cell-based; conditions: Micrococcus luteus
[7] = system: Bacillus cereus var. mycoides ATCC 11778; assay: microbe, parasite or virus in culture; format: cell-based; conditions: ATCC11778, read-out: Minimum Inhibitory Concentration (MIC)
[8] = system: Bacillus subtilis ATCC 6633; assay: Minimum Inhibitory Concentration (MIC), in vitro; format: cell-based
[9] = system: series of test microorganisms; assay: in vitro test on a series of test microorganisms (MIC), overall; format: cell-based; conditions: test strains of Tables 1 and 2; in comparison with starting 11-aza-10-deoxo-10-dihydro erythromycin A
Method: The new compounds were tested in vitro on a series of test microorganisms.

[10] = ATCC8043, Streptococcus faecalis ATCC 8043, in vitro, read-out: Minimum Inhibitory Concentration (MIC)
[11] = ATCC12228, Staphylococcus epidermidis ATCC 12228, in vitro, read-out: Minimum Inhibitory Concentration (MIC)
[12] = ATCC6538, Staphylococcus aureus ATCC 6538-P, in vitro, read-out: Minimum Inhibitory Concentration (MIC)
[13] = ATCC10240, Micrococcus flavus ATCC 10240, in vitro, read-out: Minimum Inhibitory Concentration (MIC)
[14] = ATCC9341, Sarcina lutea ATCC 9341, in vitro, read-out: Minimum Inhibitory Concentration (MIC)
[15] = ATCC6633, Bacillus subtilis ATCC 6633, in vitro, read-out: Minimum Inhibitory Concentration (MIC)

Row | Compound | antibacterial activity compared with the starting antibiotic [1] | MIC [2, 10] [mg/L] | MIC [3, 11] [mg/L] | MIC [4, 12] [mg/L] | MIC [5, 13] [mg/L] | MIC [6, 14] [mg/L] | MIC [7] [mg/L] | MIC [8, 15] [mg/L] | antibacterial activity in words [9] | MIC ([2]; ATCC8043, read-out: Minimum Inhibitory Concentration (MIC)) [mg/L] | MIC ([3]; Staphylococcus epidermidis, ATCC12228, read-out: Minimum Inhibitory Concentration (MIC)) [mg/L] | MIC ([4]; Staphylococcus aureus, ATCC6538, read-out: Minimum Inhibitory Concentration (MIC)) [mg/L] | MIC ([5]; Micrococcus flavus, ATCC10240, read-out: Minimum Inhibitory Concentration (MIC)) [mg/L] | MIC ([6]; ATCC9341, read-out: Minimum Inhibitory Concentration (MIC)) [mg/L] | MIC ([8]; Bacillus subtilis, ATCC6633, read-out: Minimum Inhibitory Concentration (MIC)) [mg/L]
1 | CC[C@H]1OC(=O)[C@H](C)[C@@H](O[C@H]2C[C@@](C)(OC)[C@@H](O)[C@H](C)O2)[C@H](C)[C@@H](O[C@@H]2O[C@H](C)C[C@H](N(C)C)[C@H]2O)[C@](C)(O)C[C@@H](C)C(=O)[C@H](C)[C@H]2OC(=O)O[C@@]21C [11,12-cyclic carbonate of erythromycin A] | improved antibacterial activity |  |  |  |  |  |  |  |  |  |  |  |  |  | 
2 | CC[C@H]1OC(=O)[C@H](C)[C@@H](O[C@H]2C[C@@](C)(OC)[C@@H](O)[C@H](C)O2)[C@H](C)[C@@H](O[C@@H]2O[C@H](C)C[C@H](N(C)C)[C@H]2O)[C@](C)(O)C[C@@H](C)CN(C)[C@H](C)[C@@H](O)[C@]1(C)O [Example 1, N-methyl-11-aza-10-deoxo-10-dihydro erythromycin A] |  | 0.01 (≈ 0.0134 µM) | 0.5 (≈ 0.668 µM) | 0.5 (≈ 0.668 µM) | 0.01 (≈ 0.0134 µM) | 0.05 (≈ 0.0668 µM) | 0.5 (≈ 0.668 µM) | 0.1 (≈ 0.134 µM) | superior effect on some tested microorganisms |  |  |  |  |  | 
3 | CC[C@H]1OC(=O)[C@H](C)[C@@H](O[C@H]2C[C@@](C)(OC)[C@@H](O)[C@H](C)O2)[C@H](C)[C@@H](O[C@@H]2O[C@H](C)C[C@H](N(C)C)[C@H]2OC(C)=O)[C@](C)(O)C[C@@H](C)CN(C)[C@H](C)[C@@H](O)[C@]1(C)O [Example 2, 2'-acetyl-N-methyl-11-aza-10-deoxo-10-dihydro erythromycin A] |  |  |  |  |  |  | 0.5 (≈ 0.632 µM) |  |  | 0.1 (≈ 0.126 µM) | 0.5 (≈ 0.632 µM) | 0.5 (≈ 0.632 µM) | 0.5 (≈ 0.632 µM) | 0.1 (≈ 0.126 µM) | 0.1 (≈ 0.126 µM)
4 | CC[C@H]1OC(=O)[C@H](C)[C@@H](O[C@H]2C[C@@](C)(OC)[C@@H](OC(C)=O)[C@H](C)O2)[C@H](C)[C@@H](O[C@@H]2O[C@H](C)C[C@H](N(C)C)[C@H]2OC(C)=O)[C@](C)(O)C[C@@H](C)CN(C)[C@H](C)[C@@H](O)[C@]1(C)O [Example 3, 2',4"-diacetyl-N-methyl-11-aza-10-deoxo-10-dihydro erythromycin A] |  | 0.5 (≈ 0.6 µM) | 2.5 (≈ 3 µM) | 0.5 (≈ 0.6 µM) | 0.1 (≈ 0.12 µM) | 0.1 (≈ 0.12 µM) | 0.5 (≈ 0.6 µM) | 2.5 (≈ 3 µM) |  |  |  |  |  |  | 
5 | CC[C@H]1OC(=O)[C@H](C)[C@@H](O[C@H]2C[C@@](C)(OC)[C@@H](OC(C)=O)[C@H](C)O2)[C@H](C)[C@@H](O[C@@H]2O[C@H](C)C[C@H](N(C)C)[C@H]2OC(C)=O)[C@](C)(O)C[C@@H](C)CN(C)[C@H](C)[C@@H](OC(C)=O)[C@]1(C)O [Example 4, 2',4"-13-triacetyl-N-methyl-11-aza-10-deoxo-10-dihydro erythromycin A] |  |  |  |  |  |  |  |  | did not exhibit any satisfactory activity |  |  |  |  |  | 
6 | CCC(=O)O[C@H]1[C@H](O[C@@H]2[C@@H](C)[C@H](O[C@H]3C[C@@](C)(OC)[C@@H](O)[C@H](C)O3)[C@@H](C)C(=O)O[C@H](CC)[C@@](C)(O)[C@H](O)[C@@H](C)N(C)C[C@H](C)C[C@@]2(C)O)O[C@H](C)C[C@@H]1N(C)C [Example 5, 2'-propionyl-N-methyl-11-aza-10-dihydro erythromycin A] |  | 0.05 (≈ 0.0621 µM) | 0.05 (≈ 0.0621 µM) | 0.1 (≈ 0.124 µM) | 0.05 (≈ 0.0621 µM) | 0.05 (≈ 0.0621 µM) | 0.5 (≈ 0.621 µM) | 0.5 (≈ 0.621 µM) |  |  |  |  |  |  | 
7 | CCC(=O)O[C@H]1[C@H](O[C@@H]2[C@@H](C)[C@H](O[C@H]3C[C@@](C)(OC)[C@@H](OC(=O)CC)[C@H](C)O3)[C@@H](C)C(=O)O[C@H](CC)[C@@](C)(O)[C@H](O)[C@@H](C)N(C)C[C@H](C)C[C@@]2(C)O)O[C@H](C)C[C@@H]1N(C)C [Example 6, 2',4"-dipropionyl-N-methyl-11-aza-10-deoxo-10-dihydro erythromycin] |  | 0.1 (≈ 0.116 µM) | 0.1 (≈ 0.116 µM) | 0.5 (≈ 0.581 µM) | 0.5 (≈ 0.581 µM) | 0.05 (≈ 0.0581 µM) | 0.5 (≈ 0.581 µM) | 0.1 (≈ 0.116 µM) |  |  |  |  |  |  | 
8 | CC[C@H]1OC(=O)[C@H](C)[C@@H](O[C@H]2C[C@@](C)(OC)[C@@H](O)[C@H](C)O2)[C@H](C)[C@@H](O[C@@H]2O[C@H](C)C[C@H](N(C)C)[C@H]2O)[C@](C)(O)C[C@@H](C)CN(C)[C@H](C)[C@H]2OC(=O)O[C@@]21C [Example 7, N-methyl-11-aza-10-deoxo-10-dihydro erythromycin A 13,14-cyclic carbonate] |  | 0.05 (≈ 0.0645 µM) | 0.5 (≈ 0.645 µM) | 0.1 (≈ 0.129 µM) | 0.1 (≈ 0.129 µM) | 0.1 (≈ 0.129 µM) | 0.1 (≈ 0.129 µM) | 0.1 (≈ 0.129 µM) |  |  |  |  |  |  | 
9 | CC[C@H]1OC(=O)[C@H](C)[C@@H](O[C@H]2C[C@@](C)(OC)[C@@H](O)[C@H](C)O2)[C@H](C)[C@@H](O[C@@H]2O[C@H](C)C[C@H](N(C)C)[C@H]2OC(C)=O)[C@](C)(O)C[C@@H](C)CN(C)[C@H](C)[C@H]2OC(=O)O[C@@]21C [Example 8, 2'-acetyl-N-methyl-11-aza-10-deoxo-10-dihydro erythromycin A 13,14-cyclic carbonate] |  | 0.05 (≈ 0.0612 µM) | 0.5 (≈ 0.612 µM) | 0.1 (≈ 0.122 µM) | 0.1 (≈ 0.122 µM) | 0.05 (≈ 0.0612 µM) | 0.1 (≈ 0.122 µM) | 0.1 (≈ 0.122 µM) |  |  |  |  |  |  | 
10 | CC[C@H]1OC(=O)[C@H](C)[C@@H](O[C@H]2C[C@@](C)(OC)[C@@H](OC(C)=O)[C@H](C)O2)[C@H](C)[C@@H](O[C@@H]2O[C@H](C)C[C@H](N(C)C)[C@H]2OC(C)=O)[C@](C)(O)C[C@@H](C)CN(C)[C@H](C)[C@H]2OC(=O)O[C@@]21C [Example 9, 2',4"-diacetyl-N-methyl-11-aza-10-deoxo-10-dihydro erythromycin A 13,14-cyclic carbonate] |  | 0.5 (≈ 0.582 µM) | 2.5 (≈ 2.91 µM) | 2.5 (≈ 2.91 µM) | 1 (≈ 1.16 µM) | 0.1 (≈ 0.116 µM) | 2.5 (≈ 2.91 µM) | 2.5 (≈ 2.91 µM) |  |  |  |  |  |  | 
11 | CCC(=O)O[C@H]1[C@H](O[C@@H]2[C@@H](C)[C@H](O[C@H]3C[C@@](C)(OC)[C@@H](O)[C@H](C)O3)[C@@H](C)C(=O)O[C@H](CC)[C@@]3(C)OC(=O)O[C@@H]3[C@@H](C)N(C)C[C@H](C)C[C@@]2(C)O)O[C@H](C)C[C@@H]1N(C)C [Example 10, 2'-propionyl-N-methyl-11-aza-10-deoxo-10-dihydro erythromycin A 13,14-cyclic carbonate] |  | 0.1 (≈ 0.12 µM) | 0.5 (≈ 0.602 µM) | 0.5 (≈ 0.602 µM) | 0.5 (≈ 0.602 µM) | 0.05 (≈ 0.0602 µM) | 0.5 (≈ 0.602 µM) | 1 (≈ 1.2 µM) |  |  |  |  |  |  | 
12 | CCC(=O)O[C@H]1[C@H](O[C@@H]2[C@@H](C)[C@H](O[C@H]3C[C@@](C)(OC)[C@@H](OC(=O)CC)[C@H](C)O3)[C@@H](C)C(=O)O[C@H](CC)[C@@]3(C)OC(=O)O[C@@H]3[C@@H](C)N(C)C[C@H](C)C[C@@]2(C)O)O[C@H](C)C[C@@H]1N(C)C [Example 11, 2',4"-dipropionyl-N-methyl-11-aza-10-deoxo-10-dihydro erythromycin A 13,14-cyclic carbonate] |  | 0.1 (≈ 0.113 µM) | 2.5 (≈ 2.82 µM) | 2.5 (≈ 2.82 µM) | 0.5 (≈ 0.564 µM) | 0.05 (≈ 0.0564 µM) | 1 (≈ 1.13 µM) | 1 (≈ 1.13 µM) |  |  |  |  |  |  | 
13 | CC[C@H]1OC(=O)[C@H](C)[C@@H](O[C@H]2C[C@@](C)(OC)[C@@H](O)[C@H](C)O2)[C@H](C)[C@@H](O[C@@H]2O[C@H](C)C[C@H](N(C)C)[C@H]2O)[C@](C)(O)C[C@@H](C)CN[C@H](C)[C@@H](O)[C@]1(C)O [Standard, 11-aza-10-deoxo-10-dihydro erythromycin A, reference compound] |  | 0.05 (≈ 0.068 µM) | 0.5 (≈ 0.68 µM) | 0.5 (≈ 0.68 µM) | 0.05 (≈ 0.068 µM) | 0.05 (≈ 0.068 µM) | 0.5 (≈ 0.68 µM) | 0.5 (≈ 0.68 µM) |  |  |  |  |  |  | 
